Results as given in PubChem BioAssay (NCI).
“And” between values parts separate entries of the source, which are not always exact repeats. Equal values may be shown once.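 These data come from cells grown in 96-well plates and exposed to compound for 48 hours at five concentrations. Here, GI50 denotes the concentration required for 50% inhibition of growth. TGI: total growth inhibition.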

How the values were obtained:
Assay in all cases: DTP human tumour cell line panel, 48 h
BT-549 breast = test system: BT-549 breast
IGROV1 ovarian = test system: IGROV1 ovarian
NCI-H226 lung = test system: NCI-H226 lung
SK-OV-3 ovarian = test system: SK-OV-3 ovarian
SNB-19 CNS = test system: SNB-19 CNS
A498 renal = test system: A498 renal
RXF 393 renal = test system: RXF 393 renal
KM12 colon = test system: KM12 colon
MALME-3M melanoma = test system: MALME-3M melanoma
TK-10 renal = test system: TK-10 renal

| Compound | GI50 (BT-549 breast) [µM] | TGI (BT-549 breast) [µM] | GI50 (IGROV1 ovarian) [µM] | TGI (IGROV1 ovarian) | GI50 (NCI-H226 lung) [µM] | TGI (NCI-H226 lung) | GI50 (SK-OV-3 ovarian) [µM] | TGI (SK-OV-3 ovarian) | GI50 (SNB-19 CNS) [µM] | TGI (SNB-19 CNS) | GI50 (A498 renal) [µM] | TGI (A498 renal) | GI50 (RXF 393 renal) [µM] | TGI (RXF 393 renal) [µM] | GI50 (KM12 colon) [µM] | TGI (KM12 colon) | GI50 (MALME-3M melanoma) [µM] | TGI (MALME-3M melanoma) [µM] | GI50 (TK-10 renal) [µM] | TGI (TK-10 renal) [µM] |
| --- | --- | --- | --- | --- | --- | --- | --- | --- | --- | --- | --- | --- | --- | --- | --- | --- | --- | --- | --- | --- |
| COc1cc2c(cc1OC)-c1ccc3cc4c(cc3c1N(CCN1CCCC1)C2)OCO4 | 1.6 | 9.01 | 0.517 | 2.37 µM | 0.876 | 3.16 µM | 0.526 | 5.51 µM | 0.543 | 1.85 µM | 1.57 | 4.63 µM | 0.794 | 2.72 | 0.538 | 1.99 µM | 2.05 | 14.2 | 3.46 | 12.5 |
| CCc1ccc(NC(=O)Nc2c[nH]c3ccccc23)cc1 | 1.68 | > 23.8 | 5.72 | > 45.5 µM | 7.29 | > 52.4 µM | 19.7 | > 73.2 µM | 22.7 | > 58.3 µM | > 46 | > 72.8 µM | 11.6 | > 59.4 | 5.63 | > 43.4 µM | 8 | > 49.4 | > 46.1 | > 70.9 |
| CCN(CC)CCOc1ccc(C(=C(C)c2ccc(Cl)cc2)c2ccc(OCCN(CC)CC)cc2)cc1 | 1.33 | 4.22 | 0.609 | 1.19 µM | 2.54 | 7.32 µM | 1.22 | 4.11 µM | 0.699 | 1.56 µM | 1.79 | 6.12 µM | 0.519 | 1.01 | 0.666 | 1.37 µM | 0.563 | 1.09 | 0.698 | 1.67 |
| OCC1OC(n2ccc3c2ncn2ncnc32)C(O)C1O (stereo unspecified) | 1.23 | 25.2 | 3.73 | > 47.4 µM | 1.59 | > 100 µM | 2.08 | > 49.2 µM | 4.7 | > 100 µM | 0.205 | 2.37 µM | 0.989 | 13.8 | 2.42 | > 100 µM | 29 | > 100 | 3.81 | > 100 |
| CCc1c(C)[nH]c(/C=C2\N=C(c3ccc[nH]3)C=C2OC)c1C | 0.129 | 3.87 | 0.274 | 3.53 µM | 0.812 | 8.83 µM | 2.95 | 13.5 µM | 1.96 | 15.7 µM | 6.87 | 21.5 µM | 0.473 | 4.11 | 0.0944 | 5.26 µM | 0.474 | 2.05 | 0.276 | 8.85 |
| CC[C@](C)(O)C(=O)O[C@H]1C(=O)O[C@@H]2C[C@H]3C(C)=CC(=O)[C@@H](O)[C@]3(C)[C@H]3[C@@]4(O)OC[C@]32[C@@H]1[C@@H](C)[C@H]4O |  | 6.76 | 0.0736 | 0.544 µM and 0.274 µM | 0.203 | 0.664 µM and 0.435 µM | 1.34 | 13.9 µM and 4.29 µM |  | 0.674 µM and 0.223 µM | 0.95 | 3.36 µM and 1.15 µM | 0.285 |  | 0.233 | 3.62 µM and 0.404 µM | 0.0337 | 0.137 |  | 9.39 |
| Nc1ncnc2sc(=S)c3c(c12)CCC3 | 22.5 | 68.2 | 50.5 | > 100 µM | 28.7 | > 100 µM | 89 | > 100 µM | 29.2 | 82.9 µM | 28.2 | 79.5 µM | 26.9 | 55.1 | 40.7 | > 100 µM | 66.4 | > 100 | 39.6 | > 100 |
| O=C(O)CSSCC(=O)O |  | > 100 |  | > 100 µM |  | > 100 µM |  | > 100 µM |  | > 100 µM |  | > 100 µM |  | > 100 |  | > 100 µM |  | > 100 |  | > 100 |
